According to patent publication US7425572B2, “Use of dioxindoindazoles and dioxoloindazoles for treating glaucoma” (Alcon, Inc., priority 2004, dated 2008):
Where a name gives a salt, the structure may show the parent alone.

Legend:
[1] = target: T1, 5-HT2 receptor (A7r5 rat vascular smooth muscle cells) (Rattus norvegicus, UniProt P14842); experiment: 5-HT2 functional assay: [Ca2+]i mobilization (FLIPR); type: cell-based; conditions: for EC50: [Ca2+]i mobilization; for Emax: percentage of maximum 5-HT-induced response, read-out: Efficacy (Emax, %)
T1 construct: endogenous in cells; host or cells: A7r5 rat vascular smooth muscle cells
T1 sequence (P14842 whole entry): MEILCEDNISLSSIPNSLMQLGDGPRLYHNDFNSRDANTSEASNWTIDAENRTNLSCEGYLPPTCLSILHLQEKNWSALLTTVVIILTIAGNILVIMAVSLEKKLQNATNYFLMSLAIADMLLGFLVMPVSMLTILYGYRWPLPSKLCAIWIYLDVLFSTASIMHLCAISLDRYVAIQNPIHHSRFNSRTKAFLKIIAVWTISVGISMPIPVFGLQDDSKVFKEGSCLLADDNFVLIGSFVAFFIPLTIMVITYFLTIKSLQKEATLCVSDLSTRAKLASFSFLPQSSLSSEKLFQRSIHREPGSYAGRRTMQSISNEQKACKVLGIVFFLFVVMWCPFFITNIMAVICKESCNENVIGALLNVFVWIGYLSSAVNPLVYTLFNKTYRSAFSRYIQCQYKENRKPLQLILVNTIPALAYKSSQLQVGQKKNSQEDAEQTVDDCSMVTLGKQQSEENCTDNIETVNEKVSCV
Experimental: Method 2: 5-HT2 Functional Assay: [Ca^2+]i Mobilization
The receptor-mediated mobilization on intracellular calcium ([Ca^2+]i) was studied using the Fluorescence Imaging Plate Reader (FLIPR) instrument. Rat vascular smooth muscle cells, A7r5, were grown in a normal media of DMEM/10% FBS and 10 μg/mL gentamycin. Confluent cell monolayers were trypsinized, pelleted, and re-suspended in normal media. Cells were seeded in a […] volume at a density of 20,000 cells/well in a black wall, 96-well tissue culture plate and grown for 2 days.
On the day of the experiment, one vial of FLIPR Calcium Assay Kit dye was re-suspended in 50 mL of a FLIPR buffer consisting of Hank's Balanced Salt Solution (HBSS), 20 mM HEPES, and 2.5 mM probenecid, pH 7.4. Cells were loaded with the calcium-sensitive dye by addition of an equal volume (50 μL) to each well of the 96-well plate and incubated with dye for 1 h at 23° C.
Typically, test compounds were stored at 25 μM in 50% DMSO/50% Ethanol solvent. Compounds were diluted 1:50 in 20% DMSO/20% Ethanol. For “hit” screening, compounds were further diluted 1:10 in FLIPR buffer and tested at a final concentration of 10 μM. For dose-response experiments, compounds were diluted 1:50 in FLIPR buffer and serially diluted 1:10 to give a 5- or 8-point dose-response curve.
The compound plate and cell plate were placed in the FLIPR instrument. At the beginning of an experimental run, a signal test was performed to check the basal fluorescence signal from the dye-loaded cells and the uniformity of the signal across the plate. The basal fluorescence was adjusted between 8000-12000 counts by modifying the exposure time, the camera F-stop, or the laser power. Instrument settings for a typical assay were the following: laser power 0.3-0.6 W, camera F-stop F/2, and exposure time 0.4 sec. An aliquot (25 μL) of the test compound was added to the existing 100 μL dye-loaded cells at a dispensing speed of 50 μL/sec. Fluorescence data were collected in real-time at 1.0 sec intervals for the first 60 secs and at 6.0 sec intervals for an additional 120 secs. Responses were measured as peak fluorescence intensity minus basal and where appropriate were expressed as a percentage of a maximum 5-HT-induced response. When the compounds were tested as antagonists against 10 μM 5-HT, they were incubated with the cells for 15 minutes prior to the addition of 5-HT.

[2] = test system: lasered (hypertensive) eyes of conscious cynomolgus monkeys; experiment: Acute IOP response in lasered (hypertensive) eyes of conscious cynomolgus monkeys; type: in vivo; conditions: lasered monkey eye
Experimental: Method 3: Acute IOP Response in Lasered (Hypertensive) Eyes of Conscious Cynomolgus Monkeys
Intraocular pressure (IOP) can be determined with an Alcon Pneumatonometer after light corneal anesthesia with 0.1% proparacaine. Eyes are washed with saline after each measurement. After a baseline IOP measurement, test compound is instilled in one 30 μL aliquot to the right eyes only of nine cynomolgus monkeys. Vehicle is instilled in the right eyes of six additional animals. Subsequent IOP measurements are taken at 1, 3, and 6 hours.
The above method was used to determine the IOP lowering efficacy of the compound of Example 1 (dosed at a concentration of 300 μg).

[3] = 1 hr after topical dose of 300 μg
[4] = 3 hrs after topical dose of 300 μg
[5] = 6 hrs after topical dose of 300 μg

Row | SMILES | EC50 [1] [nM] | Emax [1] [%] | melting point [°C] | also measured
1 | C[C@H](N)Cn1ncc2ccc3c(c21)O[C@@H](CO)CO3 [Example 1, [(S)-1-((S)-2-Amino-propyl)-7,8-dihydro-1H-[1,4]dioxino[2,3-g]indazol-8-yl]-methanol hydrochloride] | 31 | 39 |  | IOP % change [2, 3]: −4.3%; IOP Change mmHg [2, 3]: −2.2 mmHg; IOP % change [2, 4]: −15.8%; IOP Change mmHg [2, 4]: −6.8 mmHg; IOP % change [2, 5]: −23.6%; IOP Change mmHg [2, 5]: −9.6 mmHg
2 | C[C@H](N)Cn1ncc2ccc3c(c21)O[C@H](CO)CO3.Cl [Example 2, [(R)-1-((S)-2-Aminopropyl)-7,8-dihydro-1H-[1,4]dioxino[2,3-g]indazol-8-yl]-methanol hydrochloride] | 53 | 77 | 112 to 116 | 
3 | COC(=O)NC[C@H]1COc2ccc3cnn(C[C@H](C)N)c3c2O1.Cl [Example 7, [(S)-1-((S)-2-Amino-propyl)-7,8-dihydro-1H-[1,4]dioxino[2,3-g]indazol-8-ylmethyl]-carbamic acid methyl ester hydrochloride] | 92 | 66 | 265 to 266 | 
4 | COC(=O)NC[C@@H]1COc2ccc3cnn(C[C@H](C)N)c3c2O1 [Example 9, [(R)-1-((S)-2-Amino-propyl)-7,8-dihydro-1H-[1,4]dioxino[2,3-g]indazol-8-ylmethyl]-carbamic acid methyl ester hydrochloride] | 106 | 44 |  | 
5 | CCS(=O)(=O)NC[C@H]1COc2ccc3cnn(C[C@H](C)N)c3c2O1.Cl [Example 5, Ethanesulfonic acid [(S)-1-((S)-2-amino-propyl)-7,8-dihydro-1H-[1,4]dioxino[2,3-g]indazol-8-ylmethyl]-amide hydrochloride] | 67 | 82 | 243 to 244 | 
6 | C[C@H](N)Cn1ncc2ccc3c(c21)O[C@@H](CN)CO3 [Example 8, (S)-2-((S)-8-Aminomethyl-7,8-dihydro-[1,4]dioxino[2,3-g]indazol-1-yl)-1-methyl-ethylamine hydrochloride] | 232 | 54 |  | 
7 | C[C@H](N)Cn1ncc2ccc3c(c21)O[C@@H](CNS(C)(=O)=O)CO3.Cl [Example 4, N-[(S)-1-((S)-2-Amino-propyl)-7,8-dihydro-1H-[1,4]dioxino[2,3-g]indazol-8-ylmethyl]-methanesulfonamide hydrochloride] | 78 | 81 | 235 to 236 | 
8 | C[C@H](N)Cn1ncc2ccc3c(c21)O[C@@H](CO)CO3 (as salt: hydrochloride) [Example 1, [(S)-1-((S)-2-Amino-propyl)-7,8-dihydro-1H-[1,4]dioxino[2,3-g]indazol-8-yl]-methanol hydrochloride] |  |  | 202 to 203 | 
9 | C[C@H](N)Cn1ncc2ccc3c(c21)OCCO3 [Example 3, (S)-2-(7,8-Dihydro-[1,4]dioxino[2,3-g]indazol-1-yl)-1-methyl-ethylamine hydrochloride] | 27 | 92 |  | 
10 | CC(C)C(=O)NC[C@H]1COc2ccc3cnn(C[C@H](C)N)c3c2O1 [Example 6, N-[(S)-1-((S)-2-Amino-propyl)-7,8-dihydro-1H-[1,4]dioxino[2,3-g]indazol-8-ylmethyl]-isobutyramide hydrochloride] | 125 | 59 |  | 
